Measurements: PubChem BioAssay (NCI)
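Values below derive from 48-hour exposures of cells grown in 96-well plates, with endpoints linearly interpolated between the two concentrations bracketing the appropriate inhibition level. Here, GI50 denotes the concentration required for 50% inhibition of growth. Definition used: TGI = concentration required for complete inhibition of growth.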

What was measured:
Assay in all cases: inhibition of tumour cell growth, NCI panel, 48 h
A498 renal = test system: A498 renal
A549 NSCLC = test system: A549 NSCLC
DMS 114 small cell lung = test system: DMS 114 small cell lung
HCC-2998 colon = test system: HCC-2998 colon
HL-60(TB) leukemia = test system: HL-60(TB) leukemia
HOP-18 NSCLC = test system: HOP-18 NSCLC
KM20L2 colon = test system: KM20L2 colon
LXFL 529 NSCLC = test system: LXFL 529 NSCLC
M19-MEL melanoma = test system: M19-MEL melanoma
MDA-MB-231 breast = test system: MDA-MB-231 breast
MDA-MB-435 = test system: MDA-MB-435
NCI-H226 lung = test system: NCI-H226 lung
SNB-75 CNS = test system: SNB-75 CNS
SR leukemia = test system: SR leukemia

Structure (SMILES)	TGI (A498 renal) [µM]	TGI (A549 NSCLC) [µM]	TGI (DMS 114 small cell lung) [µM]	TGI (HCC-2998 colon) [µM]	TGI (HL-60(TB) leukemia) [µM]	TGI (HOP-18 NSCLC) [µM]	TGI (KM20L2 colon) [µM]	TGI (LXFL 529 NSCLC) [µM]	TGI (M19-MEL melanoma) [µM]	TGI (MDA-MB-231 breast) [µM]	TGI (MDA-MB-435) [µM]	TGI (NCI-H226 lung) [µM]	TGI (SNB-75 CNS) [µM]	TGI (SR leukemia) [µM]	GI50 (HL-60(TB) leukemia) [µM]	GI50 (A498 renal) [µM]	GI50 (HCC-2998 colon) [µM]	GI50 (MDA-MB-435) [µM]	GI50 (NCI-H226 lung) [µM]	GI50 (SNB-75 CNS) [µM]
CCc1c2cc(OC)c(OC)cc2cc2c3cc(OC)c(OC)cc3cc[n+]12 (tested in a mixture with another compound)	> 71.8	> 96.6	63.1	52	> 96.8	> 100	> 100	> 76.3	> 92.7	48.8	25.5	39.2	38.4	> 57.9						
COc1ccc(NC(=S)NNC(=O)c2nsc3ccccc23)cc1		> 100	> 100	> 100	60.8		> 100	> 100	> 100				66.8	> 100						
OC(c1ccc(Cl)cc1)(c1ccc(Cl)cc1)c1cncnc1	47.6									33.9	36.7	42.2	52.7	> 100						
Cc1cn(C2C=CC(COP(=O)(OCc3ccc([N+](=O)[O-])o3)N(C)CCCCCl)O2)c(=O)[nH]c1=O (stereo not given)		22.8			32.3					25.9	4.42	23.6	10.8	4.83						
CCCCN(CCCC)CCC(O)c1cc(-c2ccc(C(F)(F)F)cc2)nc(-c2ccc(C(F)(F)F)cc2)c1 (stereo not given)	> 100			> 100	> 100					> 100	> 100		> 100	> 100						
O=C1CCCC/C1=C1/SC(=Nc2ccccc2)C(=Nc2ccccc2)N1c1ccccc1	> 100			> 100	> 100					> 100		> 100	> 100	> 100						
COC1CC(OC2CCC3(C)C(=CCC4C3C(OC(C)=O)C(OC(=O)CC(C)C)C3(C)C(C(C)=O)CCC43O)C2)OC(C)C1OC1CC(OC)C(OC2CC(OC)C(OC3OC(C)C(O)C(OC)C3O)C(C)O2)C(C)O1 (stereo not given)	> 100	> 100		70.3	74.5					65.6	63.5	89.9	70	62						
Clc1cc2ccccc2c2ccccc12	> 100	> 100		> 100	> 100					> 100	> 100	> 100	> 100	> 100						
O=NN1C(c2ccccc2)C2CCCC(C2=O)C1c1ccccc1 (stereo not given)	> 94.1	> 100	> 93.8	34.4	44.7	> 25.2	25.9		37.1			71	61							
NC1C=NNC1=O (stereo not given)		> 100	> 100	> 100	> 100		> 100	> 100					> 100							
O=C(Nn1c(-c2cccs2)nc2ccc(I)cc2c1=O)c1ccccc1		45.1		58.6	99.7						45.7	> 100		61.4	33.7					
Clc1ccc(C2CC(c3cccc(Nc4ccncc4)c3)=NN2c2ccc(Cl)cc2)cc1 (stereo not given)	2.94			3.27							3.24	38.3	2.56			1.56	1.73	1.71	12.4	1.21
O=C(O)C1OC1C(=O)O (stereo not given)	> 100	> 100		> 100						> 100	> 100	> 100	> 100	> 100						
C[C@]12Cc3cnc(-c4ccccc4)nc3C[C@@H]1CC[C@@H]1[C@@H]2CC[C@@]2(C)[C@H]1CC[C@]2(C)O	43.2	57.6		37.9	> 100					73.1	> 70.4	58.1	21.6	88.5						
CC(C)=Cc1cc(C)c2c3c(c(O)c(O)c(C)c13)C(C)=CC2=O	47.5	56			67					64.4	55.1	50.9		78.1						
CN(CCO)Cc1ncccc1O	> 100	> 100			> 100					> 100	> 100	> 100	> 100	> 100						
O=S(=O)(O)c1cc(S(=O)(=O)O)c2cc(N=Nc3c(O)ccc4ccccc34)ccc2c1		> 100			> 100					> 100	> 100	> 100	> 100							
CN1CC(c2ccccc2)C(O)(C2(c3ccccc3)CN(C)CC(c3ccccc3)C2=O)C(c2ccccc2)C1 (stereo not given)	> 100	> 100			> 100					> 100	> 100	> 100		> 100						
Nc1c(OCC(=O)O)ccc2cc(S(=O)(=O)O)ccc12	> 100	> 100		> 100	> 100					> 100	> 100	> 100	> 100							
CCC1C(C#N)=C(O)NC(O)=C1C#N	> 100	> 100	> 100	> 100		> 100	> 100	> 100	> 100			> 100	> 100							
COc1ccc(C(=O)NC2=C(Cl)C(=O)c3ccccc3C2=O)cc1	27.7	> 36.7		16.9	> 100					14.6	7.53	9.32	12.8	> 19.6						
CC1C2CCC3C(O)C2(CC(O)C2(O)C1CC(O)C2(C)C)CC3(C)O (stereo not given)	> 100	> 100		> 100	> 100					> 100	> 100	> 100		> 100						
CCOC(=O)c1nc2ccccc2n(CC)c1=O	> 100	> 100		> 100	> 100					> 100	> 100	> 100		> 100						
CN(C)CCCNc1ccc2nnn3c4ccc(OC(=O)c5ccccc5)cc4c(=O)c1c23	25.4	23.7		26.1						27.3	19.1			2.61						
c1cc(-c2ccc(-c3nc4ccc(C5=NCCN5)cc4s3)s2)ccc1C1=NCCN1				0.162	2.08					1.49				1.43						
CO/N=C(/C)c1cccc(Nc2nc3ccc(Cl)cc3c3[nH]c4ccccc4c23)c1	14.2	30.2			32					27.8	21.4	27.9		14.6						
O=C(O)CCO/N=C1/C(c2c(O)[nH]c3ccccc23)=Nc2ccccc21	74.2	> 100		35.7	62.4					> 100	> 100		53.5	57.9						
